Measurements from patent publication US10165772B2, “Methods and compounds for increasing red blood cell survival” (priority 2008, dated 2019).

Legend:
Assay type in all cases: cell-based
human RBCs [1] = assay: RBC density and morphology by May Grünwald-Giemsa staining and light microscopy
Protocol: (C). Cells were incubated in the presence or absence of 5-HT. The density of RBC suspension and their morphology were assessed by May Grünwald-Giemsa staining;
(§1) Cell culture. Drugs [serotonin (Catalog No. H9525), melatonin (Catalog No. M5250), pindolol (Catalog No. P0778) and indomethacin (Catalog No. 18280)] were all purchased from Sigma-Aldrich. They were added at the indicated concentrations at the beginning of cell incubation (Day 0). Cells were harvested at specific time-points and analyzed by flow cytometry (FACScan™, Becton Dickinson) according to forward and side scatters (FSC and SSC, respectively). FSC is proportional to cell size, while SSC is proportional to cell complexity, which may reflect hemoglobin content of RBCs. The relative proportions of viable and dead RBCs were calculated by setting appropriate regions on the dot plots. In some experiments, RBCs were sorted according to FSC and SSC. Cell density was checked routinely by inverted light microscopy, and cell morphology was assessed by May Grünwald-Giemsa staining followed by light microscopy.
To evaluate the morphology of the two populations of RBCs, these cells were sorted by flow cytometry according to their FSC/SSC characteristics, and stained by the May Grünwald-Giemsa method. […] Cells with intermediate amounts of hemoglobin (between normochromic and hypochromic) were also present in the R2 region (FIG. 2, upper right panel). […] At day 7, in the absence of 5-HT, fewer cells were present, and the majority of these cells were hypochromic with cytoplasmic inclusions (FIG. 3B, left panels).

human RBCs [2] = assay: Survival of human RBCs cultured in AS-3 additive solution, flow cytometry; conditions: 100 μM
Protocol: AS-3 is an additive solution commonly used for storage of RBCs. RBCs were incubated in home-made (A) and commercially available (B) AS-3 solution (Haemonetics, Catalog No. 0460a-00) for various lengths of time at 4° C. in the absence (white circles) or presence (100 μM, black circles) of 5-HT, and cell viability was assessed by flow cytometry at several times as indicated. The home-made AS-3 was prepared in sterile water as follows: Sodium chloride (NaCl, 2.35 g), D-Glucose (Dextrose, 5.5 g), Adenine (0.15 g), Citric Acid (0.21 g), Sodium Phosphate dibasic (Na2HPO4 anhydrous, 1.380 g) were dissolved in 500 ml of sterile water. The pH of the solution was adjusted at 7.39;
as §1, with “They were added at the indicated concentrations at the beginning of cell incubation (Day 0).” left out, “FSC is proportional to cell size, while SSC is proportional to cell complexity, which may reflect hemoglobin content of RBCs.” left out, “In some experiments, RBCs were sorted according to FSC and SSC.” left out
The effect of 5-HT on the survival of human RBCs cultured in AS-3 solution was assessed. […]

mouse RBCs = assay: Survival of mouse RBCs cultured at 37° C., flow cytometry; conditions: day 1 to day 7, 0-100 μM
Protocol: Mouse RBCs were cultured at 37° C. for the indicated periods of time, in the presence of increasing concentrations of 5-HT (0-100 μM). Cell viability was assessed by flow cytometry at day 1 (A), day 2 (B), day 3 (C), day 5 (D) and day 7 (E), and the percentage of viable cells (% of cells in R2) is indicated;
as §1, with “microscopy. […]” for “microscopy.”

[3] = system: human red blood cell (RBC); assay: Human RBC survival in vitro in RPMI 1640, viable/dead cells by flow cytometry (FSC/SSC); conditions: for protecting effect on RBCs (survival versus vehicle control): 100 μM, RPMI 1640; for RBC survival as compared to RBCs cultured in the presence of buffer only: 7 days at 37° C., 1, 10, 100 μM tested (FIG. 13)
Protocol: RBCs were incubated in vitro at 37° C., and cells were analyzed by flow cytometry for assessment of the relative proportions of dead and viable cells. Forward scatter (FSC)/side scatter (SSC) dot plots of RBCs incubated in the presence or absence of 5-HT (100 μM) are shown in (A) to (E) for the indicated time points. Two main regions of analysis are set, R1 (left box) and R2 (right box), corresponding to dead and viable RBCs, respectively. The proportion of viable cells remaining at each time-point is indicated next to the R2 region (upper right in the dot plots). (F) Typical concentration-dependent effects of 5-HT (0-100 μM) on RBCs incubated for different periods of time;
RBCs were incubated for various lengths of time in the RPMI 1640 medium at 37° C. (A), at room temperature (21 to 23° C.) (B), or at 4° C. (C). 5-HT (100 μM, black circles) or vehicle control (white circles) was added before incubation at Day 0, and cell viability was assessed by flow cytometry at several times as indicated;
RBCs were incubated for 7 days at 37° C. in the presence or absence of different concentrations of the indicated indole compounds (white bars =1 μM; grey bars=10 μM; black bars:100 μM). As a control, RBCs were incubated in the presence of the appropriate buffer (without the compounds). RBCs survival in the presence of a given compound is expressed as the percentage of survival relative to the control.
Red blood cells isolation. Venous blood was drawn from healthy volunteers, and RBCs were isolated by centrifugation at 800 rpm to remove platelet-rich plasma, and white blood cells. The resulting pellet of RBCs was washed three times in NaCl 0.9% by centrifugation at 3000 rpm. RBCs were incubated at 37° C., 5% CO2 in 24-well microplates at a concentration of 1x10^6 cells/ml in RPMI 1640 medium without phenol red containing HEPES/NaOH (pH 7.4) and penicillin (100 U/ml)/streptomycin ([…]).
as §1

## NCCc1c[nH]c2ccc(O)cc12 [5-HT, serotonin]
Human RBCs [1]; 91 days at 4° C.
  RBC morphology (normochromic / hypochromic): normochromic red blood cells are observed
Human RBCs [1]; day 7, 37° C.
  RBC morphology (normochromic / hypochromic): the majority of these cells were normochromic
Human RBCs [1]; day 7, 37° C., versus absence of 5-HT
  number of cells remaining, as judged by cell density: a greater number of cells remained
Human RBCs [2]; commercially available AS-3, 4° C.
  survival of RBCs versus absence of 5-HT: increases the survival
Human RBCs [2]; home-made AS-3, 4° C.
  survival of RBCs versus absence of 5-HT: increases the survival
Mouse RBCs
  proportion of viable mouse RBCs versus 5-HT-free cultures: higher
[3]; 0-100 μM tested, 37° C., FIG. 1F
  concentration giving optimal effect on RBC viability: 100 µM
[3]; 4° C.
  protecting effect on RBCs (survival versus vehicle control): is observed
[3]; 37° C.
  protecting effect on RBCs (survival versus vehicle control): is observed
[3]; all time-points (day 0 to 21), 37° C., 5-HT 100 μM
  percentage of viable RBCs as compared to controls without 5-HT: higher
[3]; room temperature (21-23° C.)
  protecting effect on RBCs (survival versus vehicle control): is observed

## COc1ccc2[nH]cc(CCNC(C)=O)c2c1 [melatonin]
[3]
  RBC survival as compared to RBCs cultured in the presence of buffer only: increased survival

## CC(C)NCC(O)COc1cccc2[nH]ccc12 (centres unmarked) [pindolol]
[3]
  RBC survival as compared to RBCs cultured in the presence of buffer only: increased survival

## COc1ccc2c(c1)c(CC(=O)O)c(C)n2C(=O)c1ccc(Cl)cc1 [indomethacin]
[3]
  RBC survival as compared to RBCs cultured in the presence of buffer only: increased survival
